Laboratory results published in US20220226586A1, “An Inhaler For Electronically Supervised Parenteral Administration of a Pharmaceutical Composition” (Celon Pharma S.A., priority 2019, published 2022).
Counter-ions that a name gives are not always drawn.

Legend:
NMDA receptor = conditions: cited from earlier work
[1] = cited from earlier work
[2] = cited from earlier work; remark: listed apart in the source
[3] = system: treatment-resistant depression; conditions: cited from earlier work
[4] = Pharmacokinetics of inhaled esketamine dry powder in healthy volunteers; type: in vivo; conditions: overall conclusion
Procedure: Esketamine hydrochloride dry powder formulation of Example 2 was administered to healthy volunteers pulmonary, i.e. directly to the lungs using dry powder inhaler (DPI) (by self-administration).
One puff of dry powder formulation contained 4.6 mg of esketamine hydrochloride, corresponding to 4 mg of esketamine free base and excipients 18.22 mg of lactose monohydrate and 0.18 mg of magnesium stearate.
A single dose was an inhalation events consisting of 1 to 6 puffs, i.e. 4 to 24 mg of esketamine free base nominal dose.
In part A of the study, designed as a one-centre single ascending dose, the medicine was delivered in a single dose once daily (up to 6 consecutive puffs) to 18 healthy volunteer subjects. Subjects were divided into 6 cohorts, cohorts receiving 1, 2, 3, 4, 5 or 6 puffs in a single doses (inhalation events), respectively.
Collection of blood samples for determination of esketamine and esnorketamine concentration and calculation of pharmacokinetic parameters was performed for up 24 hours following the start of the test.
The aim of the study was to determine the amount of puffs needed to obtain plasma concentration similar to that sufficient to achieve antidepressant effect as for 0.20 mg/kg 40 minutes intravenous infusion. It can be predicted on the basis of literature data that this corresponds to concentration at 40 min of infusion between about 60 to 100 ng/ml. […]

[5] = nebulized saline solution, inhalation; cited from earlier work
[6] = after intravenous infusion of racemic ketamine
[7] = after oral administration of ketamine

## NC1(c2ccccc2Cl)CCCCC1=O (stereo not drawn) [norketamine]
NMDA receptor
  activity on NMDA receptor relative to ketamine: many times less active than ketamine
[1]; [6]
  maximum concentration as % of ketamine concentration: 10-20%
  percentage of AUC norketamine to ketamine: 20-40%
[2]; [7]
  AUC relative to ketamine: exceeding 1000%
  level as % of ketamine level: 500-1000%

## CNC1(c2ccccc2Cl)CCCCC1=O (racemic) [ketamine]
[3]; human, in vivo
  fraction of patients with treatment-resistant depression responsive to treatment: about 2/3
[1]; after intravenous infusion 0.5 mg/kg for 40 minutes
  half-period of concentration fall: below 2 hours
[1]; intravenous infusion 0.5 mg/kg for 40 minutes, maintained for about 40 minutes
  systemic concentration of parent drug: about 200 ng/ml
[2]; orally administered
  bioavailability: 16-20%

## CN[C@]1(c2ccccc2Cl)CCCCC1=O [esketamine]
[4]
  plasma concentration profile after pulmonary administration: quite smooth, consistent with a target profile and safe for chronic administration
[3]; 40-minute i.v. infusion of 0.20 mg/kg or 0.40 mg/kg (Singh et al.)
  antidepressant effect in TRD patients: rapid onset of robust antidepressant effects

## CN[C@]1(c2ccccc2Cl)CCCCC1=O [esketamine hydrochloride]
[5]
  inhaled bioavailability: reduced
